As usually defined, the AUC(0-t) is exposure summed from dosing to a finite time, without extrapolation to infinity. By clearance is commonly meant a measure of how efficiently the substance is removed, as volume per time. A high value points to a high capacity for elimination. For orientation: half-life means the time in which the quantity being followed falls by half. A word on the Cmax: it is the peak of the concentration-time curve. As usually defined, the Tmax is the time at which the peak concentration occurs. As a reminder, the bioavailability is the share of a dose that reaches the circulation, judged against a reference dose that is usually intravenous. Low readings indicate little systemic uptake, high ones much systemic uptake. The IC50 is the midpoint of a concentration-inhibition curve.

This is an account of results in patent publication US12221432B2, “Estrogen receptor antagonist” (CHIA TAI TIANQING PHARMACEUTICAL GROUP CO., LTD., priority 2018, dated 2025).

Counter-ions that a name gives are not always drawn.

The nature of data set [1]: Pharmacokinetics study in mice (cassette). The note with it: female, Balb/c, plasma, mouse cassette PK. Type of data set: in vivo. An excerpt:
Objective: To determine the drug concentration in the plasma of the mice at different times after intravenous and oral administration of the test compounds by LC/MS/MS using female Balb/c mice as the test animals. To investigate the pharmacokinetic performance of the test compounds in mice and to evaluate the pharmacokinetic characteristics.
Test animals: 4 healthy female Balb/c mice were divided into 2 groups according to the principle of similar weight, 2 in the IV group and 2 in the PO group. The animals were purchased from Shanghai Lingchang Biotechnology Co., Ltd.
(§1) IV group: Appropriate amounts of compounds were weighed respectively, prepared into 2 mg/mL solutions, then mixed to give a 0.5 mg/mL solution, which was stirred and ultrasonicated until a clear state. The vehicle was 15% HP-b-CD.
(§2) PO group: An appropriate amount of the IV group solution was taken and diluted to 0.4 mg/mL with 15% HP-b-CD.
(§3) Administration: After fasting overnight, the IV group was administered intravenously, and the dose of the test compound was 1 mg/kg; the PO group was administered intragastrically, and the dose of the test compound was 2 mg/kg.
(§4) Procedures: For IV group, 30 μL of blood was collected from the saphenous vein of the female Balb/c mice at 0.0833, 0.25, 0.5, 1, 2, 4, 8, and 24 hours post-dose, and placed in a commercial anticoagulant tube with EDTA-K2 added in advance. For PO group, 30 μL of blood was collected from the saphenous vein of the female Balb/c mice at 0.25, 0.5, 1, 2, 4, 8, 12 and 24 hours post-dose, and placed in a commercial anticoagulant tube with EDTA-K2 added in advance. The blood samples were centrifuged (3,200 g, 4° C., 10 minutes) to give plasma samples, which was transferred to a pre-cooled centrifuge tube, frozen in dry ice, and stored in an ultra-low temperature freezer at −60° C. or lower until the LC-MS/MS analysis. The animals were given free access to food 4 hours after the administration. LC/MS/MS method was used to determine the content of the test compounds in the plasma of mice after intravenous and oral administration. The linear range of the method is 2.00-2000 nM.

A short description of data set [2]: Pharmacokinetics study in rats (cassette). The class given is in vivo. The note with it: female, SD, plasma, rat cassette PK.
From the text: Experimental objective: To determine the drug concentration in the plasma of the rats at different times after intravenous and oral administration of the test compounds by LC/MS/MS using female SD rats as the test animals. To investigate the pharmacokinetic performance of the test compounds in rats and to evaluate the pharmacokinetic characteristics.
Test animals: 4 healthy female SD rats were divided into 2 groups according to according to the principle of similar weight, 2 in the IV group and 2 in the PO group. Animal used in this study were purchased from Beijing Vital River Laboratory Animal Technology Co., Ltd.
as §1, §2, §3
as §4, with “200” for “30”, “jugular” for “saphenous”, “SD rats” for “Balb/c mice”

The target in the next data set is T1, CYP2C9 (Homo sapiens, UniProt P11712).
T1 construct: tissue Corning Co., Ltd; host or cells: human liver microsomes
Briefly: Cytochrome P450 isoenzyme inhibition, CYP2C9. Type of data set: in vitro ADME. The note with it: human liver microsomes; read-out: CYP enzyme inhibition (IC50) 2C9. An excerpt: (§5) Experimental objective: To determine the inhibitory effect of the test compound on the activity of human liver microsomal cytochrome P450 isoenzymes (CYP1A2, CYP2C9, CYP2C19, CYP2D6 and CYP3A4; Corning Co., Ltd.). […]

In a further data set the target is T2, CYP2C19 (Homo sapiens, UniProt P33261).
T2 construct: tissue Corning Co., Ltd; host or cells: human liver microsomes
Briefly: Cytochrome P450 isoenzyme inhibition, CYP2C19. The class given is in vitro ADME. The note with it: human liver microsomes; read-out: CYP enzyme inhibition (IC50) 2C19.
From the text: as §5

Setting [3] is: iv, i.v. 1 mg/kg, read-out: Vdss.

T1 sequence (P11712 whole entry): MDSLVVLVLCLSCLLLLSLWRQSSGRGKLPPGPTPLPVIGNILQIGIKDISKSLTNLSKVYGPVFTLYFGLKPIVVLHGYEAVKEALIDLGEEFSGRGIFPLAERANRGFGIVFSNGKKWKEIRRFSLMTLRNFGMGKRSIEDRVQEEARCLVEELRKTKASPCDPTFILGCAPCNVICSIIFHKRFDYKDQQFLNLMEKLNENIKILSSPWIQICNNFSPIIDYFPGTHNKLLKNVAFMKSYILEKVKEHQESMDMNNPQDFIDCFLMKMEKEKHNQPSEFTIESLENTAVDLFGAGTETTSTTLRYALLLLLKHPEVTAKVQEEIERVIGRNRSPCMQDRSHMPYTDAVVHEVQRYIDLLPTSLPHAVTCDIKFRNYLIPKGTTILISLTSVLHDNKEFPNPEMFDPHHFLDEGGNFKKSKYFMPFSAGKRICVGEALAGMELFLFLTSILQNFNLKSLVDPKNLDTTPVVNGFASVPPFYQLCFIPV
T2 sequence (P33261 whole entry): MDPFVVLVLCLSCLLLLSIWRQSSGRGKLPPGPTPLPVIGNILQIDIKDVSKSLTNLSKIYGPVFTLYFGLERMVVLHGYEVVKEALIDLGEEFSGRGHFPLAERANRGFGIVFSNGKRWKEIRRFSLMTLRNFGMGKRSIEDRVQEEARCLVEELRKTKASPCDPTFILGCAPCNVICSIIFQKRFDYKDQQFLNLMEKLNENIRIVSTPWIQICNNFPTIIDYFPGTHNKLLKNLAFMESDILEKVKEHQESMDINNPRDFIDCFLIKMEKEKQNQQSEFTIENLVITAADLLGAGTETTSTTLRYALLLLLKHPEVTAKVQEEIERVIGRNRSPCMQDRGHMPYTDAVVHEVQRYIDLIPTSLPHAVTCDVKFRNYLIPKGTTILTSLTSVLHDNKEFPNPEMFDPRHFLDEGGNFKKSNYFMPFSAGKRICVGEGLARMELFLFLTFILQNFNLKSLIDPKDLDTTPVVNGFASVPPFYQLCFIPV

Turning to `CC/C(=C(/c1ccc(OCCNC/C=C/C(=O)N(C)C)nc1)c1[nH]c2ccccc2c1Cl)c1ccccc1` [Compound 3 monohydrochloride], in data set [1] (iv, i.v. 1 mg/kg), the AUC(0-t) amounted to 2.43 µM·h, the clearance was found to be 12.9 mL/min/kg and the half-life is 3.37 h. The Vd in data set [1] (setting [3]) worked out at 3.46 L/kg. For the same compound, in data set [1] (po, p.o. 2 mg/kg), the exposure AUC(0-t) was determined as 1.27 µM·h, the Cmax was 224 nM, the Tmax came to 0.25 h and the bioavailability was 26.1%. Moreover, the half-life in data set [1] (po, p.o. 2 mg/kg) was 8.12 h. In data set [2] (iv, i.v. 1 mg/kg), the area under the curve AUC(0-t) was 3.55 µM·h, the clearance turned out to be 8.14 mL/min/kg and the half-life was 6.65 h. Moreover, the Vd in data set [2] (setting [3]) is 4.46 L/kg. Further, in data set [2] (po, p.o. 2 mg/kg), the area under the curve AUC(0-t) was found to be 5.21 µM·h, the peak level (Cmax) was 464 nM, the time to peak (Tmax) is 2 h and the bioavailability turned out to be 73.3%. In addition, at CYP2C9, the half-inhibitory concentration (IC50) stood at 8.4 µM. Also, on CYP2C19, the IC50 is 3.9 µM.
